Like-named read-outs stand apart in the source and are kept apart here.

The record followed here is patent US8772250B2, “Compositions and methods for treating ischemia and ischemia-reperfusion injury” (Ischemix, LLC, priority 2010, dated 2014).

One data set deals with IGF1R (Homo sapiens, UniProt P08069). Description: IGF1R tyrosine kinase activation assay (mobility shift). The class given is biochemical. The text has this: IGF1R and Src tyrosine kinases have endogenous levels of activity in the presence of ATP and substrate. This activity was readily measured using a mobility shift assay using a Caliper LabChip® 3000 and a 12-sipper LabChip® to detect both phosphorylated and unphosphorylated substrate (Caliper Life Sciences, Discovery Alliances and Services Division). Enzyme, substrate and ATP concentrations were optimized for each assay. For the IGF1R assay, the final concentrations of the enzyme, peptide and ATP were 20 nM, 1.5 μM, and 1220 μM, respectively. For the Src assay, the final concentrations of the enzyme, peptide and ATP were 2.5 nM, 1.5 μM, and 17 μM, respectively.
RLip-EA-OH was evaluated at multiple concentrations for an effect on activation of IGF1 receptor kinase (IGF1R) and Src. The compounds tested activated IGF1R and Src with different selectivities.

A further data set concerns the target T1, insulin receptor kinase (Homo sapiens, UniProt P06213).
T1 construct: insulin receptor kinase domain (Millipore catalog #14-466, 80 nM); purchased Millipore 14-466
Description: IRK activation assay (mobility shift kinase assay). The class given is biochemical. The source says: Insulin receptor kinase activity was readily measured by a mobility shift assay using a Caliper LabChip® 3000 and a 12-sipper LabChip® to detect both phosphorylated and unphosphorylated substrate (Caliper Life Sciences, Discovery Alliances and Services Division, Hanover, Md.). The mobility-shift kinase assay uses a micro fluidic chip to measure the conversion of a fluorescent peptide substrate to a phosphorylated product. The reaction mixture from a microtiter plate well was introduced through a capillary sipper onto the chip and the nonphosphorylated substrate and phosphorylated product were separated by electrophoresis and detected via laser-induced fluorescence. […] The catalytic subunits of tyrosine kinases have endogenous levels of activity in the presence of ATP and substrate, thus the results are presented as a % of control.
Specifically, each test compound was diluted to 25 times its assay concentration with 100% DMSO and added to 12 μL of an assay buffer solution (100 mM HEPES, 10 mM MnCl2, 5 mM B-GP, and 0.002% Brij) containing dithiotheritol (DTT, 2 mM) and insulin receptor kinase domain (Millipore catalog #14-466, 80 nM) prior to pre-incubation at room temperature for 15 minutes. […] The samples were placed on the LabChip 3000 to measure the amount of parent substrate and phosphorylated product. […]

The nature of data set [1]: Pharmacokinetic evaluation in rats. The format is in vivo. The following applies: both sexes, rat. As for the experimental part: To evaluate systemic exposure to RLip-EA-OH, groups of rats were given single intravenous infusion doses of vehicle (2/sex) or RLip-EA-OH at the same dose levels of 30, 100, or 200 mg/kg (6/sex/group). For the vehicle-treated group, blood samples were collected from all rats at pre-dose and at 30 minutes (+2 minutes) post-dose only. For RLip-EA-OH-treated groups, blood samples were collected from three rats/sex/group at 10 minutes, 30 minutes, 45 minutes and 1, 2, 3, and 4 hours (±2 minutes) after dosing.
Administration was by IV infusion into a surgically-placed catheter in the femoral vein using a syringe pump at a rate of injection no greater than 0.2 mL/min. The dose volume for each animal was based on the most recent body weight measurement and doses were rounded to the nearest 0.1 mL. […]
Samples were placed in tubes containing K3EDTA and stored on ice until centrifuged, under refrigeration, for at least ten minutes at 3000 rpm. After centrifugation, plasma was removed and stored frozen at or below minus 70° C. until shipped to BASi in West Lafayette, Ind. for analysis.
Plasma RLip-EA-OH concentrations were measured at BASi in West Lafayette, Ind., using a validated LC/MS/MS method with positive turbo ion spray, in the multiple reaction-monitoring mode. The quantifiable range for the assay was 0.05 to 50 μg/mL and QC samples were included at 0.15, 10 and 37.5 μg/mL. Toxicokinetic analysis was performed using WinNonlin version 5.1 by calculation of standard parameters.

Sequence of IGF1R (P08069 959-1367 limits assumed, species assumed): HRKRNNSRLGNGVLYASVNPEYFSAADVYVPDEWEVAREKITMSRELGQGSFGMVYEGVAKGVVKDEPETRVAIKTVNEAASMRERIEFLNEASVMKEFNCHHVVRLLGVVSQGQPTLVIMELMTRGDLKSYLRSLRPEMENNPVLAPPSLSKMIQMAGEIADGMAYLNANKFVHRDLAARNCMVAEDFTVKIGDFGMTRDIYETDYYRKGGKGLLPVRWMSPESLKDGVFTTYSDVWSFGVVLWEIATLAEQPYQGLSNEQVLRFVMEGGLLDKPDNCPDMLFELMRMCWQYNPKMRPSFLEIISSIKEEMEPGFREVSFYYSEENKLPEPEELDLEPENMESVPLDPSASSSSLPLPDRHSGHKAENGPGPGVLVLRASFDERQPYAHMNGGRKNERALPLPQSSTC
T1 sequence (P06213 1023-1298 limits assumed): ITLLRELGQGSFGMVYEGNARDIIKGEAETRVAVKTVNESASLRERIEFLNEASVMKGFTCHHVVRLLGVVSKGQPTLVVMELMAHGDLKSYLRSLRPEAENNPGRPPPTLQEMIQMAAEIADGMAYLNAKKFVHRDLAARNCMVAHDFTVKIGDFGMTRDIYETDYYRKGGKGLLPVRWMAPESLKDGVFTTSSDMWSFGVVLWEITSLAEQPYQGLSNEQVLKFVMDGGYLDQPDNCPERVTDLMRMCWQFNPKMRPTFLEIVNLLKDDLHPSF

The AUC(0-inf) is the area under the concentration-time curve extrapolated to infinity. A high value points to high exposure. In general, Cmax refers to the highest concentration seen after dosing. The clearance is a measure of how efficiently the substance is removed, as volume per time. Low readings indicate inefficient removal, high ones efficient removal. With `C[C@H](NC(=O)[C@H](CCC(=O)O)NC(=O)CCCC[C@@H]1CCSS1)C(=O)O` [RLip-EA-OH, N-(R)-lipoyl-L-glutamyl-L- alanine], the “IGF1R % activity above control (±SEM)” value on IGF1R (100 μM) is given as 42 ± 1%. Besides, the “IGF1R % Increase in activity above vehicle control” value at IGF1R (300 μM) stood at 33 ± 3%. At insulin receptor kinase (100 μM), the “AVG % activity above control (±SEM)” value turned out to be 78 ± 15%. Moreover, the “IRK % Increase in activity above vehicle control” value on insulin receptor kinase (300 μM) is 77 ± 7%. In data set [1] (plasma, 30 mg/kg IV infusion), the AUC(0-inf) was ~7000 ng·h/mL, the highest level (Cmax) was 20000 ng/mL and the clearance was 75 mL/min/kg. In addition, the Vd in data set [1] (plasma, 30 mg/kg IV infusion, read-out: Vss) came out at 1.2 L/kg. Further, the half-life in data set [1] (plasma, 30 mg/kg IV infusion, read-out: t½ (converted)) was 9 min. In data set [1] (serum, intravenous, rats, dose of 30 mg/kg, read-out: serum half-life), the half-life is ~9 min.
